Test [1] has as its target T1, Substance-K receptor (Homo sapiens, UniProt P21452).
T1 sequence (P21452 whole entry): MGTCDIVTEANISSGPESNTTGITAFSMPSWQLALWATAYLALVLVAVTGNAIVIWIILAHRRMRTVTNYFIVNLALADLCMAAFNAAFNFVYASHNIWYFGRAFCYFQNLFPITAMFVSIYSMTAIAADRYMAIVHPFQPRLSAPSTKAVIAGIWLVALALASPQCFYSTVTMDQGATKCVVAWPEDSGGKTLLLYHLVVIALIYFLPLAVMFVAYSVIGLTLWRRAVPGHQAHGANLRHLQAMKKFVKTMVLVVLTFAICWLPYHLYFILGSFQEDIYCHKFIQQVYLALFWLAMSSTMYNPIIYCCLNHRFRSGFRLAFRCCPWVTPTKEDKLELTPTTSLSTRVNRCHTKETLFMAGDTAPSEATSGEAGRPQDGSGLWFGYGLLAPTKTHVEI
The experiment in a line: Binding affinity test against Neurokinin 2 (NK2) receptor.

The target in test [2] is Substance-P receptor (Homo sapiens, UniProt P25103). Put plainly: Tested for binding affinity against neurokinin 1 (NK1) receptor.
Sequence of Substance-P receptor (P25103 whole entry): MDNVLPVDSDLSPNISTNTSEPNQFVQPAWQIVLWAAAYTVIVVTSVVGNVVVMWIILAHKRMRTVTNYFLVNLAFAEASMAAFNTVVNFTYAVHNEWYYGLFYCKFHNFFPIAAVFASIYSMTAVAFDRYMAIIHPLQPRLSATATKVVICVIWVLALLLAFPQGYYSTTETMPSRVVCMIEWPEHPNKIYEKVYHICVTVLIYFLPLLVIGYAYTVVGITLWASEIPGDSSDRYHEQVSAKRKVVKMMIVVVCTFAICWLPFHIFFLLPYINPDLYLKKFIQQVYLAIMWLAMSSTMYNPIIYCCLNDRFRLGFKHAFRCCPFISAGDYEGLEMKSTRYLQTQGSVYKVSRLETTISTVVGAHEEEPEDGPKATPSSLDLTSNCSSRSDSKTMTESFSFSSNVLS

These results are taken from ChEMBL document CHEMBL1135364, “Synthesis and structure-activity relationships of oxime neurokinin antagonists: discovery of potent arylamides” (Bioorg Med Chem Lett, 2002).

For `CO/N=C(\COCc1cc(F)cc(F)c1)C(CCN1CCC(O)(c2ccccc2)CC1)c1ccc(Cl)c(Cl)c1` (centres undefined), the Ki in test [1] was 42 nM.
Consider `CO/N=C(\COCc1ccc(F)c2ccccc12)C(CCN1CCC(O)(c2ccccc2)CC1)c1ccc(Cl)c(Cl)c1` (centres undefined), for which the inhibitory constant (Ki) in test [1] came out at 21 nM.
Same read-out and setting: to `CO/N=C(\COCc1ccccn1)C(CCN1CCC(O)(c2ccccc2)CC1)c1ccc(Cl)c(Cl)c1` (centres undefined) belongs 43 nM.
Turning to `CO/N=C(\CN(C)C(=O)c1cc(C)nc(N2CCCC2)c1)C(CCN1CCC(O)(c2ccccc2)CC1)c1ccc(Cl)c(Cl)c1` (centres undefined), the Ki in test [2] was 2 nM; in test [1], 3 nM.
Regarding `CO/N=C(\COCCc1cc(C(F)(F)F)cc(C(F)(F)F)c1)C(CCN1CCC(O)(c2ccccc2)CC1)c1ccc(Cl)c(Cl)c1` (centres undefined), the Ki turned out to be 39 nM in test [2] and 118 nM in test [1].
Take `CO/N=C(\CN(C)C(=O)c1cc(C)nc(-c2cccs2)c1)C(CCN1CCC(O)(c2ccccc2)CC1)c1ccc(Cl)c(Cl)c1` (centres undefined): the Ki is 2 nM in test [2] and 6 nM in test [1].
`CO/N=C(\COCc1cc(C)cc(C)c1)C(CCN1CCC(O)(c2ccccc2)CC1)c1ccc(Cl)c(Cl)c1` (centres undefined) had a Ki in test [1] of 8 nM.
Turning to `CO/N=C(\CCCc1cc(C(F)(F)F)cc(C(F)(F)F)c1)C(CCN1CCC(O)(c2ccccc2)CC1)c1ccc(Cl)c(Cl)c1` (centres undefined), the Ki in test [2] was found to be 92 nM; in test [1] it was 332 nM.
For `CO/N=C(\CN(C)C(=O)Oc1cc(C(F)(F)F)cc(C(F)(F)F)c1)C(CCN1CCC(O)(c2ccccc2)CC1)c1ccc(Cl)c(Cl)c1` (centres undefined), in that order: 6 nM and 11 nM.
`CO/N=C(\CN(C)C(=O)c1ccc(C)s1)C(CCN1CCC(O)(c2ccccc2)CC1)c1ccc(Cl)c(Cl)c1` (centres undefined) displayed a Ki in test [1] of 2 nM.
As to `CO/N=C(\CN(C)C(=O)c1ccc(N(C)C)c2ccccc12)C(CCN1CCC(O)(c2ccccc2)CC1)c1ccc(Cl)c(Cl)c1` (centres undefined), the Ki in test [1] was 7 nM.
For the compound `CO/N=C(\CN(C)C(=O)c1cc(C)cc(C)c1)C(CCN1CCC(O)(c2ccccc2)CC1)c1ccc(Cl)c(Cl)c1` (centres undefined), the Ki in test [2] was determined as 1 nM; in test [1], 2 nM.
For `CO/N=C(\COC(=O)Nc1cc(C(F)(F)F)cc(C(F)(F)F)c1)C(CCN1CCC(O)(c2ccccc2)CC1)c1ccc(Cl)c(Cl)c1` (centres undefined) the same measures were 32 nM and 35 nM.
Take `CO/N=C(\CN(C)C(=O)c1cc(OC)c(Br)c(OC)c1)C(CCN1CCC(O)(c2ccccc2)CC1)c1ccc(Cl)c(Cl)c1` (centres undefined): the results for the Ki in test [2] and in test [1] were 5 nM and 8 nM, respectively.
Turning to `CO/N=C(\CN(C)C(=O)c1ccccc1OC)C(CCN1CCC(O)(c2ccccc2)CC1)c1ccc(Cl)c(Cl)c1` (centres undefined), the Ki in test [1] came out at 4 nM.
Regarding `CO/N=C(\CN(C)C(=O)c1cc(OC)cc(OC)c1)C(CCN1CCC(O)(c2ccccc2)CC1)c1ccc(Cl)c(Cl)c1` (centres undefined), the Ki turned out to be 5 nM in test [2] and 2 nM in test [1].
In test [1], `CO/N=C(\COCc1cc(OC)cc(OC)c1)C(CCN1CCC(O)(c2ccccc2)CC1)c1ccc(Cl)c(Cl)c1` (centres undefined) yielded a Ki of 18 nM.
In turn, `CO/N=C(\CNC(=O)c1cc(C(F)(F)F)cc(C(F)(F)F)c1)C(CCN1CCC(O)(c2ccccc2)CC1)c1ccc(Cl)c(Cl)c1` (centres undefined) came in with a Ki in test [1] of 2 nM.
For the compound `CO/N=C(\CN(C)C(=O)c1cc(OC)c(OC)c(OC)c1)C(CCN1CCC(O)(c2ccccc2)CC1)c1ccc(Cl)c(Cl)c1` (centres undefined), in test [1], the Ki worked out at 3 nM.
Regarding `CO/N=C(\COCc1noc(C(C)(C)C)n1)C(CCN1CCC(O)(c2ccccc2)CC1)c1ccc(Cl)c(Cl)c1` (centres undefined), in test [1], the Ki was found to be 1 nM.
Turning to `CO/N=C(\CN(C)C(=O)c1cc(C)nc(C)c1)C(CCN1CCC(O)(c2ccccc2)CC1)c1ccc(Cl)c(Cl)c1` (centres undefined), the Ki in test [1] was determined as 6 nM.
In turn, `CO/N=C(\CNC(=O)c1ccccc1OC)C(CCN1CCC(O)(c2ccccc2)CC1)c1ccc(Cl)c(Cl)c1` (centres undefined) yielded a Ki in test [1] of 54 nM.
`CO/N=C(\COCc1cc(Cl)cc(Cl)c1)C(CCN1CCC(O)(c2ccccc2)CC1)c1ccc(Cl)c(Cl)c1` (centres undefined) displayed a Ki in test [1] of 6 nM.
In test [1], `CO/N=C(\COCc1cc(F)cc(C(F)(F)F)c1)C(CCN1CCC(O)(c2ccccc2)CC1)c1ccc(Cl)c(Cl)c1` (centres undefined) had a Ki of 10 nM.
In test [1], `CO/N=C(\COCc1cc(OC)c(OC)c(OC)c1)C(CCN1CCC(O)(c2ccccc2)CC1)c1ccc(Cl)c(Cl)c1` (centres undefined) showed a Ki of 28 nM.

For orientation: Ki means a dissociation constant, usually derived from enzyme kinetics or from competition with a known ligand. A high value points to weaker binding.
